According to patent US20240182406A1, “COMPOUNDS AS SOLUBLE EPOXIDE HYDROLASE INHIBITORS” (UNIVERSITAT DE BARCELONA, priority 2021, published 2024):
Marks after values point to notes of the source that are not given here.

What was measured:
CD1 mice = assay: Seizure assay (pentylenetetrazole, PTZ test); type: in vivo, mouse
Protocol: Test compounds were dissolved in 20% hydroxypropyl-beta-cyclodextrin and concentration was calculated according to the animal weigh to reach the precise dose. Animals were housed in standard care facilities with a 12 hours light-dark cycle with free access to water and food.
To investigate the ability of compounds to cross the blood-brain barrier (BBB), a standard acute test involving the administration of pro-convulsant pentylenetetrazole (PTZ) was employed [Inceoglu et al, PLoS ONE, 2013, 8(12), e80922; WO 2015/148954 A1]. In the test, PTZ was administered at 85 mg/Kg by subcutaneous route, time to onset of first clonic seizure, average of clonic seizures, tonic seizure latency and lethality were monitored for 30 min. Vehicles or compounds were administered by gavage at 5 mg/kg 1 h prior to pro-convulsant.

SH-SY5Y cells = settings: 100 μM, 24 h
Protocol: 50 ul of Cell titer Glo reagent was added to each well and incubated for 10 min.

[1] = 5 mg/kg by gavage 1 h prior to PTZ 85 mg/Kg s.c., monitored 30 min

With `O=C(NC12CC3CC(Cl)(CC(C1)c1ccccc13)C2)N[C@H]1CC[C@H](Oc2ccc(C(=O)O)cc2)CC1` [Example 2, 4-[((1r,4r)-4-(3-(9-chloro-5,6,8,9,10,11-hexahydro-7H-5,9:7,11-dimethanobenzo[9]annulen-7-yl)ureido)cyclohexyl)oxy]benzoic acid] the Average clonic seizure (CD1 mice; [1]) was 1.25, the “Mean time to clonic seizure latency” value (CD1 mice; [1]) was 1006.5 s and the “Protected from tonic/total (Mortality)” value (CD1 mice; [1]) was 6/6****. The “Mean time to tonic seizure” value (CD1 mice; 5 mg/kg by gavage 1 h prior to PTZ 85 mg/Kg s.c., animals without tonic seizure within 30 min excluded) was 0.00 s, the “Mean time to tonic seizure in seconds” value (CD1 mice; 5 mg/kg by gavage 1 h prior to PTZ 85 mg/Kg s.c., animals without tonic seizure within 30 min excluded, listed as compound of Example 2) was “delay onset of tonic seizures” and the “protection from convulsions and associated lethality” value (CD1 mice; PTZ test, 5 mg/kg by gavage) was “protect mice from convulsions and associated lethality”. For the same compound, the “neuronal cell toxicity (viability)” value (SH-SY5Y cells) was “did not show any neuronal cell toxicity”.
